Values quoted from earlier work as cited in patent US11903918B2, “Fumarate ester dosage forms with enhanced gastrointestinal tolerability” (BANNER LIFE SCIENCES LLC, priority 2020, dated 2024).
Where a name gives a salt, the structure may show the parent alone.

Experiments:
[1] = tested on: nuclear factor erythroid-derived 2-like (Nrf2) pathway; details: in vitro and in vivo in humans

solubility in water: highly soluble in water
SMILES: COC(=O)/C=C/C(=O)OC [dimethyl fumarate, dimethyl (E) butenedioate]
activation of the Nrf2 pathway [1]: activate
